From patent US20030220517A1, “Method for producing ketocarboxylic acid derivatives” (priority 2000, published 2003)

Experiment: log P determination by HPLC on reversed-phase column (EEC Directive 79/831 Annex V.A8)
Type: physicochemical
Conditions: reversed-phase C18 HPLC column, reversed-phase column (C 18), 43° C., acidic range pH 2.3, 0.1% aqueous phosphoric acid/acetonitrile gradient
Experimental: The log P values given in the use examples above are determined in accordance with EEC Directive 79/831 Annex V.A8 by HPLC (High Performance Liquid Chromatography) on a reversed-phase column (C 18). Temperature: 43° C. The determination is carried out in the acidic range at pH 2.3 using the mobile phases 0.1% aqueous phosphoric acid and acetonitrile; linear gradient from 10% acetonitrile to 90% acetonitrile. Calibration is carried out using unbranched alkan-2-ones (with 3 to 16 carbon atoms) with known logP values (determination of the logP values by the retention times using linear interpolation between two successive alkanones).

Compound	chromatographic logP
Fc1cccc(F)c1C1=N[C@@H](c2ccc(-c3ccc(OC(F)(F)F)cc3)cc2)CC1 [Example V-1, (2R)-5-(2,6-difluorophenyl)-2-[4′-(trifluoromethoxy)-1,1′-biphenyl-4-yl]-3,4-dihydro-2H-pyrrole]	4.13
O=C1CCC(c2ccc(-c3ccc(OC(F)(F)F)cc3)cc2)N1 (centres unmarked) [Example X-1, 5-[4′-(trifluoromethoxy)-1,1′-biphenyl-4-yl]-2-pyrrolidinone]	2.95
O=C1CCC(c2ccc(-c3ccc(OC(F)(F)F)cc3)cc2)N1C(CO)c1ccccc1 (centres unmarked) [VII-1, 1-[2-hydroxy-1-phenylethyl]-5-[4′-(trifluoromethoxy)-1,1′-biphenyl-4-yl]-2-pyrrolidinone]	3.8
C=C(c1ccccc1)N1C(=O)CCC1c1ccc(-c2ccc(OC(F)(F)F)cc2)cc1 (centres unmarked) [IX-1, 1-(1-phenylvinyl)-5-[4′-(trifluoromethoxy)-1,1′-biphenyl-4-yl]-2-pyrrolidinone]	4.35
CC(C)(C)OC(=O)N1C(=O)CCC1c1ccc(-c2ccc(OC(F)(F)F)cc2)cc1 (centres unmarked) [XI-1, tert-butyl 2-oxo-5-[4′-(trifluoromethoxy)-1,1′-biphenyl-4-yl]-1-pyrrolidinecarboxylate]	4.32
O=C1CCC(c2ccc(-c3ccc(OC(F)(F)F)cc3)cc2)N1C(CCl)c1ccccc1 (centres unmarked) [VIII-1, 1-[2-chloro-1-phenylethyl]-5-[4′-(trifluoromethoxy)-1,1′-biphenyl-4-yl]-2-pyrrolidinone]	4.78
CC(C)(C)OC(=O)NC(CCC(=O)c1c(F)cccc1F)c1ccc(-c2ccc(OC(F)(F)F)cc2)cc1 (centres unmarked) [XIII-1, tert-butyl 4-(2,6-difluorophenyl)-4-oxo-1-[4′-(trifluoromethoxy)-1,1′-biphenyl-4-yl]butylcarbamate]	5.18

Experiment: not given
Conditions: not given

Compound	melting point [°C]
O=C(O)CCC(=O)c1ccc(-c2ccc3c(c2)OC(F)(F)C(F)(F)O3)cc1 [Example 5, 4-oxo-4-(3′,4′-tetrafluoroethylenedioxo-biphenyl-4-yl)butyric acid]	165 to 168
